“Also recorded” adds a separate entry of the source.
Columns and labels:
HER2 = assay: Phospho-specific intracellular flow cytometry, ratio of pHER2 to total HER2 in HCC1569; format: cell-based; details: for Modulus-dependent regulation of pHER2/HER2 ratio in treated cells: HCC1569, inhibitor for 24 hours on PA gels of differing compliance
Text: FIG. 13 is a graph showing by using intracellular flow cytometry to analyze the pHER2 and HER2 expression level of HCC1569, that cells on softer gel have higher pHER2/HER2 ratio and less EdU incorporation, vice versa, and then compared to the drug response. Thus stiffness can alter HER2 regulation and drug response. pHER2/HER2 ratios are altered in a modulus-dependent manner. (blue line) pHER2/HER2 ratios as determined with phosphor specific flow cytometry on HCC1569 cells cultured 4 days on different compliance substrata. (red line) Responses to lapatinib determined by EdU incorporation in HCC1569 as a function of substrate compliance
To better understand why changing the elastic modulus of the culture substrata altered sensitivity to lapatinib on PA gels we used phospho-specific intracellular flow cytometry techniques to measure the ratio of phosphorylated HER2 (pHER2, which is considered activated) to total HER2. Cells were first fixed and stained with an antibody that recognized total HER2 on the cell surface, then the cells were permeabilized and stained for pHER2 prior to multicolor analysis on a flow cytometer.
To determine whether the actinomyosin network is involved in regulating the modulus-dependent regulation of HER2, HCC 1569 were exposed to Blebbistatin or Y27632 for 24 hours on PA gels of differing compliance. […] Thus the actinomyosin network is likely important in modulus-dependent regulation of HER2.

[1] = tested on: HER2+ breast cancer cell line HCC1569; assay: EdU incorporation (DNA synthesis) of HCC1569 on 2D tissue culture plastic, PA gels of tuned elastic modulus or 3D Matrigel; details: for Effect of inhibitor added with lapatinib on the 3D context-dependent response (EdU incorporation): 3D Matrigel versus 2D TC plastic; for Effect of inhibitor alone on EdU incorporation: TC plastic or 3D Matrigel, without lapatinib; for Effect of actinomyosin network inhibitor on the modulus-dependent lapatinib response: HCC1569 on PA gels, 1 hr w/inhibitors; for Response to lapatinib (EdU incorporation), 3D Matrigel culture versus 2D tissue culture plastic: 4 days growth then 2 days with 1.5 μM Lapatinib
Procedure: (§1) The cells were grown on plastic tissue culture dishes (2D) vs. PA gels, and 3D on top, RPMI1640 with 1% FBS and 5% Matrigel 4 days growth then 2 days with 1.5 μM Lapatinib.
(§2) We sought to determine if HER-2 drug response was different between 2D and 3D culture environment and whether that difference is due to different substrata stiffness. Cells were grown on plastic tissue culture dishes (2D), functionalized polyacrylamide cell culture (PA) gels, and in 3D (Matrigel on top, RPMI1640 with 1% FBS and 5% Matrigel 4 days growth then 2 days with 1.5 μM Lapatinib).
We next sought to determine if the actinomyosin network plays a role in this different drug response. Cells were grown in 2D, on PA gels, and in 3D Matrigel with 2 days growth, 1 hr w/inhibitors, then 2 days with 1.5 μM lapatinib.
To determine whether the 3D Matrigel context response was due only to the physiological modulus, we combined the actinomyosin network inhibitors together with lapatinib and compared the responses of cells in 3D to cells cultured on 2D TC plastic.
We next sought to determine if the concentration of type I collagen affected HER-2 targeted drug response. Referring now to FIG. 14, cells were subjected to non-coated tissue culture dishes, Collagen I coated tissue coated dishes for 2 days growth, then 2 days with 1.5 μM lapatinib.

HER2- BT549 cells = assay: EdU incorporation of BT549 on 2D plastic, PA gels or 3D Matrigel; format: cell-based; details: PA gel and 3D, 1.5 μM Lapatinib
Procedure: as §1, §2

HCC1569 cells = assay: eMEArray drug response, EdU-pixels/nucleus-pixels of HCC1569 on printed microenvironments on PA gels
[2] = tested on: HER2-expressing breast cancer cell lines; details: cited from earlier work
[3] = then 2 days with 1.5 μM lapatinib

Q: With `C[C@@H](N)[C@H]1CC[C@H](C(=O)Nc2ccncc2)CC1` [Y27632] as the molecule, how does the “Modulus-dependent regulation of pHER2/HER2 ratio in treated cells” value (HER2) read?
A: absent

Q: And the “Effect of inhibitor added with lapatinib on the 3D context-dependent response (EdU incorporation)” value ([1]; HCC1569)?
A: did not alter

Q: What about the “Effect of inhibitor alone on EdU incorporation” value ([1]; HCC1569) of the same molecule?
A: did not have any effect

Q: And the “Effect of actinomyosin network inhibitor on the modulus-dependent lapatinib response” value (“Effect of actinomyosin network inhibitor” below) [1, 3]?
A: altered

Q: Which “Effect of inhibitor added with lapatinib on the 3D context-dependent response (EdU incorporation)” value ([1]; HCC1569) does the source give for `O=S(=O)(c1cccc2c(I)cccc12)N1CCCNCC1` [ML-7] here?
A: eliminated any context-driven differences

Q: What about the “Effect of inhibitor alone on EdU incorporation” value ([1]; HCC1569) of the same molecule?
A: did not have any effect

Q: What about the “Effect of actinomyosin network inhibitor” value [1, 3] of the same molecule?
A: altered

Q: What about the “Effect of combination with Lapatinib on cells on 2D PA gels” value ([1]; combination of ML-7 with Lapatinib, 2D PA gels) of the same molecule?
A: synergistic response that caused massive cell death

Q: What about the “Effect of lapatinib and ML-7 together on cells in 3D” value ([1]; lapatinib and ML-7, 3D Matrigel) of the same molecule?
A: no such synergistic effect

Q: For `Cc1ccc2c(c1)C(=O)C1(O)CCN(c3ccccc3)C1=N2` (stereo not shown) [Blebbistatin], which “Modulus-dependent regulation of pHER2/HER2 ratio in treated cells” value (HER2) is on record?
A: absent

Q: What about the “Effect of actinomyosin network inhibitor” value [1, 3] of the same molecule?
A: altered

Q: For `CS(=O)(=O)CCNCc1ccc(-c2ccc3ncnc(Nc4ccc(OCc5cccc(F)c5)c(Cl)c4)c3c2)o1` [Lapatinib], which “Ratio of pHER2 to total HER2 as a function of substrate compliance” value (HER2; HCC1569 on 400 Pa, 2500 Pa, 4470 Pa, 40 KPa gels or TC plastic, 1.5 uM lapatinib for 4 days) is on record?
A: higher ratio of pHER2 to total HER2 on more compliant substrata

Q: And the “Response to lapatinib (EdU incorporation)” value (HER2- BT549 cells)?
A: unaffected

Q: What about the “Response to lapatinib (EdU incorporation)” value (HER2- BT549 cells; listed as lapatinib) of the same molecule?
A: did not respond; also recorded: insensitive

Q: What about the “Response of cells on eMEArrays with elastic modulus similar to 40 kPa” value (HCC1569 cells; 40 kPa) of the same molecule?
A: sensitive response

Q: And the “Response of cells on 400 kPa eMEArrays” value (HCC1569 cells; 400 kPa)?
A: resistant response

Q: What about the “Responses to lapatinib on other molecular microenvironments relative to type 1 collagen alone” value (HCC1569 cells; HCC1569, 1.5 μM Lapatinib for 24 hours, EdU for the final 4 hours) of the same molecule?
A: widely varied responses

Q: And the “Response to lapatinib (EdU incorporation) on PA gels tuned to 400 Pa, compared with 3D Matrigel” value ([1]; HCC1569, 400 Pa PA gel crosslinked to type 1 collagen, 1.5 uM lapatinib)?
A: very similar results compared to 3D cultures; also recorded: phenocopied the response of HCC1569 grown in 3D Matrigel

Q: And the “Response to lapatinib (EdU incorporation), 3D Matrigel culture versus 2D tissue culture plastic” value ([1]; HCC1569)?
A: inhibited more

Q: And the “Response to lapatinib (EdU incorporation), 3D Matrigel culture versus 2D tissue culture plastic” value ([1]; HCC1569, listed as lapatinib)?
A: more sensitive

Q: What about the “Influence of type I collagen concentration on lapatinib response (% EdU incorporation)” value ([1]; non-coated vs Collagen-I coated TC dishes or PA gels, 2 days growth, then 2 days with 1.5 μM lapatinib) of the same molecule?
A: does impact lapatinib response on TC dishes, but less so on low modulus gels

Q: And the “Responsiveness in 3D Matrigel culture compared to 2D growth” value [2]?
A: less responsive
